Assay results as given in US20240393292A1, “ALLERGY ANTIGEN AND EPITOPE THEREOF” (HOYU CO., LTD., priority 2019, published 2024).
Values belong to the substance of their own block, whether it stands above or below them.

Test system: IgE antibodies from patients
Assay: Wheat epitope mapping (2): overlapping 10-amino-acid peptide fragments shifted by one amino acid;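 further: key = sequence deemed particularly important within the common 15-residue sequence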
Format: binding, human
Conditions: sequence without X
Outline: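 Cellulose-bound 10-mer peptides offset by one residue were probed with patient serum IgE and detected by chemiluminescence. Secondary-antibody-only signals were subtracted per peptide. Residual binding was expressed as % of the parent overlapping peptide, scored as none (<30%), poor (30–<50%), somewhat poor (50–<70%) or retained (≥70%).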

[1] = serum of patient P51 (child, general immediate type allergy to wheat)
[2] = serum of patient P53 (child, general immediate type allergy to wheat)
[3] = serum of patient G1 (adult, general immediate type allergy to wheat)
[4] = serum of patient G2 (adult, general immediate type allergy to wheat)
[5] = serum of patient G3 (adult, general immediate type allergy to wheat)
[6] = serum of patient G4 (adult, general immediate type allergy to wheat)
[7] = serum of patient G5 (adult, general immediate type allergy to wheat)
[8] = serum of patient G6 (adult, general immediate type allergy to wheat)
[9] = serum of patient G9 (adult, general immediate type allergy to wheat)

Substance: 1654 (YNPDKVPF; REGION 1..8: note = epitope) [compound 1654]
- Rank of partial sequence as epitope binding to IgE antibody [1]: Key

Substance: 1655 (FVPISG; REGION 1..6: note = epitope) [compound 1655]
- Rank of partial sequence as epitope binding to IgE antibody [1]: Key

Substance: 1656 (NPDKVPFV; REGION 1..8: note = epitope) [compound 1656]
- Rank of partial sequence as epitope binding to IgE antibody [2]: Key

Substance: 1657 (VPFVPISG; REGION 1..8: note = epitope) [compound 1657]
- Rank of partial sequence as epitope binding to IgE antibody [2]: Key

Substance: 1658 (KVPFVPISG; REGION 1..9: note = epitope) [compound 1658]
- Rank of partial sequence as epitope binding to IgE antibody (serum of patient P54 (child, general immediate type allergy to wheat)): Key

Substance: 1659 (YNPDKVPF; REGION 1..8: note = epitope) [compound 1659]
- Rank of partial sequence as epitope binding to IgE antibody [3]: Preferably

Substance: 1660 (YNPDK; REGION 1..5: note = epitope) [compound 1660]
- Rank of partial sequence as epitope binding to IgE antibody [3]: Key

Substance: 1661 (FVPISG; REGION 1..6: note = epitope) [compound 1661]
- Rank of partial sequence as epitope binding to IgE antibody [3]: Key

Substance: 1663 (YNPDKVPFV; REGION 1..9: note = epitope) [compound 1663]
- Rank of partial sequence as epitope binding to IgE antibody [4]: Preferably

Substance: 1664 (YNPDKVPF; REGION 1..8: note = epitope) [compound 1664]
- Rank of partial sequence as epitope binding to IgE antibody [4]: Key

Substance: 1665 (VPFVPISG; REGION 1..8: note = epitope) [compound 1665]
- Rank of partial sequence as epitope binding to IgE antibody [4]: Key

Substance: 1666 (YNPDKVP; REGION 1..7: note = epitope) [compound 1666]
- Rank of partial sequence as epitope binding to IgE antibody [5]: Preferably

The remaining lines, values ahead:

- Rank of partial sequence as epitope binding to IgE antibody [5]: Key
Substance: 1667 (NPDKVP; REGION 1..6: note = epitope) [compound 1667]

- Rank of partial sequence as epitope binding to IgE antibody [5]: Key
Substance: 1668 (FVPISG; REGION 1..6: note = epitope) [compound 1668]

- Rank of partial sequence as epitope binding to IgE antibody [6]: More preferably
Substance: 1669 (GYNPDKVPFV; REGION 1..10: note = epitope) [compound 1669]

- Rank of partial sequence as epitope binding to IgE antibody [6]: Preferably
Substance: 1670 (YNPDKVPFV; REGION 1..9: note = epitope) [compound 1670]

- Rank of partial sequence as epitope binding to IgE antibody [6]: Key
Substance: 1671 (YNPDKVPF; REGION 1..8: note = epitope) [compound 1671]

- Rank of partial sequence as epitope binding to IgE antibody [6]: Key
Substance: 1672 (PDKVPFVPIS; REGION 1..10: note = epitope) [compound 1672]

- Rank of partial sequence as epitope binding to IgE antibody [7]: Preferably
Substance: 1676 (KVPFVPISG; REGION 1..9: note = epitope) [compound 1676]

- Rank of partial sequence as epitope binding to IgE antibody [7]: Key
Substance: 1677 (PFVPISG; REGION 1..7: note = epitope) [compound 1677]

- Rank of partial sequence as epitope binding to IgE antibody [8]: More preferably
Substance: 1680 (YNPDKVPF; REGION 1..8: note = epitope) [compound 1680]

- Rank of partial sequence as epitope binding to IgE antibody [8]: Preferably
Substance: 1681 (DKVPF; REGION 1..5: note = epitope) [compound 1681]

- Rank of partial sequence as epitope binding to IgE antibody [9]: Key
Substance: 1683 (YNPDKVPF; REGION 1..8: note = epitope) [compound 1683]

- Rank of partial sequence as epitope binding to IgE antibody [9]: Key
Substance: 1684 (FVPISG; REGION 1..6: note = epitope) [compound 1684]

- Rank of partial sequence as epitope binding to IgE antibody (serum of patient P5 (WDEIA)): Key
Substance: 1687 (EAANFT; REGION 1..6: note = epitope) [compound 1687]

- Rank of partial sequence as epitope binding to IgE antibody (serum of patient P14 (WDEIA)): Key
Substance: 1688 (KEAA; REGION 1..4: note = epitope) [compound 1688]

- Rank of partial sequence as epitope binding to IgE antibody (serum of patient P14 (WDEIA)): Key
Substance: 1689 (SQVIIM; REGION 1..6: note = epitope) [compound 1689]

- Rank of partial sequence as epitope binding to IgE antibody (serum of patient P16 (WDEIA)): Key
Substance: 1690 (EAANFT; REGION 1..6: note = epitope) [compound 1690]
